pIC50: −log10 of the molar value. Where “and” joins values, the source holds several entries; their conditions need not be identical. Identical values can stand only once.
Test system: 323965-272-R-J2-PDC complex spheroid growth, % test/control
Assay: Anticancer human tumor 323965-272-R-J2-PDC patient-derived pancreatic carcinoma cell line growth inhibition [Asc]
Settings: for viability, T/C: stronger effect = lower value; active = viability on the fitted dose curve at most 10% of control; inactive = the rest
Procedure: Multicellular complex tumor spheroid response to apoptosis pathway targeting inhibitors Alrizomadlin, Pelcitoclax, and Dasminapant in combination with a variety of drugs and investigational agents in selected tumor cell lines
The MDM2 inhibitor alrizomadlin, the Bcl-2/Bcl-xL inhibitor pelcitoclax, and the IAPs inhibitor dasminapant were evaluated both individually and in combination with standard of care and investigational anticancer small molecules within a complex spheroid model of solid tumors. . Complex spheroids include a stromal component modeled by human endothelial cells (HUVEC) and fibroblasts modeled by human mesenchymal stem cells (MSCs). The concentration ranges selected for each drug and investigational agent were based upon clinically achievable concentrations if the clinical Cmax of the agent was known.
Compounds. The drugs and investigational agents: alrizomadlin (APG-115; NSC831270), pelcitoclax (APG-1252; NSC835773), dasminapant (APG-1387;NSC834197), TAK-243 (NSC785004), copanlisib (NSC809693), olaparib (NSC753686), talazoparib (NSC767125), cobimetinib (NSC 768068), eltanexor (KPT-8602, NSC 794443), abemaciclib (NSC 768073), sotorasib (NSC818433), adagrasib (NSC 831453), MRTX-1133 (NSC 836407), Iadademestat (ORY1001, NSC 806812), and RMC-4630 (NSC839698), were obtained from the NCI Developmental Therapeutics Program Chemical Repository. The FDA-approved anticancer drug set is available from the Developmental Therapeutics Program at https://dtp.cancer.gov/organization/dscb/obtaining/available plates.htm. […] The stock solutions were prepared in dimethyl sulfoxide (DMSO, Sigma-Aldrich, St. Louis, MO, cat. D2650) at 800-fold the tested concentration and stored at -70 degrees C prior to their use. All drugs and investigational agents were tested over a range starting from a high concentration at or near the clinical Cmax and decreasing in half-log increments. If the clinical Cmax for an agent had not been determined, the highest concentration tested was 10 microM.
The patient-derived cancer (PDC) cell lines include five colon adenocarcinomas: 186277-243-T-J2-PDC, 616215-338-R-J1-PDC, 439559-082-T-J2-PDC, 463943-066-T-J2-PDC, and 519858-162-T-J1-PDC; three pancreatic carcinomas: 323965-272-R-J2-PDC, 521955-158-R6-J3-PDC, and 521955-158-R2-J5-PDC; two uterine sarcomas: 327498-152-R-J2-PDC and 993429-296-R-J1-PDC; two rhabdomyosarcomas: 755483-174-R-J1-PDC and 772245-204-R-J1-PDC; two soft tissue sarcomas: 126254-015-R-J1-PDC and 494315-158-R-J1-PDC; two malignant fibrous histiocytomas: 317291-083-R-J1-PDC and 596521-263-R-J1-PDC; two breast carcinomas: 171881-019-R-J1-PDC and 885512-296-R-J2-PDC; and one ovarian carcinoma: 6556581-035-R-J-PDC were obtained from the NCI PDMR, (https://pdmr.cancer.gov). The established cell lines HSSY-2 synovial sarcoma (RRID:CVCL 8719), SYO-1 synovial sarcoma (RRID:CVCL_7146), MPNST malignant peripheral neural sheath tumor were obtained from the Sloan Kettering Institute. The following established cell lines were purchased from the American Type Culture Collection (ATCC, Manassas, VA), Sor the received from the NCI repository:, PANC-1 pancreatic carcinoma (CRL-1469, RRID:CVCL_0480), OVCAR-5 ovarian carcinoma (RRID:CVCL_1628), OVCAR-8 ovarian carcinoma (RRID:CVCL_1629), , MCF-7 breast carcinoma (CRL-12584, RRID:CVCL_0031), MDA-MB-231 breast carcinoma (CRL-12532, RRID:CVCL_0062), NCI-H1876 small cell lung carcinoma (CRL-5902, RRID:CVCL_1503), NCI-H510A small cell lung carcinoma (HTB-184, RRID:CVCL_1565), NCI-H1417 (CRL-5869, RRID:CVCL_1469), and NCI-H196 small cell lung carcinoma (CRL-5823, RRID:CVCL_1509). Dr. Peter Houghton (Greehey Children's Cancer Research Institute, University of Texas Health Science Center, San Antonio, TX) provided Rh-18 rhabdomyosarcoma (RRID:CVCL_1659). Pooled donor human umbilical vein endothelial cells (HUVEC, Lonza, cat. CC-2519) and human mesenchymal stem cells (hMSC, Lonza, cat. PT-2501) were purchased from Lonza (Walkersville, MD).
Cell Culture. […]

[1] = curve of first compound, second compound 0.00949 µM
[2] = curve of first compound, second compound 0.03 µM
[3] = curve of first compound, second compound 0.0949 µM
[4] = curve of first compound, second compound 0.3 µM
[5] = curve of first compound, second compound 0.949 µM
[6] = curve of first compound, second compound 3 µM
[7] = second compound 0.00949 µM, first compound 0.0316 µM
[8] = second compound 0.00949 µM, first compound 0.1 µM
[9] = second compound 0.03 µM, first compound 0.0316 µM
[10] = second compound 0.03 µM, first compound 0.1 µM
[11] = second compound 0.0949 µM, first compound 0.0316 µM
[12] = second compound 0.0949 µM, first compound 0.1 µM
[13] = second compound 0.3 µM, first compound 0.0316 µM
[14] = second compound 0.3 µM, first compound 0.1 µM
[15] = second compound 0.949 µM, first compound 0.0316 µM
[16] = second compound 0.949 µM, first compound 0.1 µM
[17] = second compound 3 µM, first compound 0.0316 µM
[18] = second compound 3 µM, first compound 0.1 µM
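Also: compound exposure lasted 7 days starting three days after spheroid seeding.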
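For viability, T/C in this document: 100% = DMSO vehicle control wells with viability set relative to vehicle.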

NC1CCC(NC2CC2c2ccccc2)CC1 (centres undefined) + CCN1C(C(=O)NC23CCC(C(=O)O)(CC2)CC3)C(c2cccc(Cl)c2F)C2(C(=O)Nc3cc(Cl)ccc32)C12CCCCC2
< 7.00: pIC50 [1] | pIC50 [2] | pIC50 [3] | pIC50 [4] | pIC50 [5] | pIC50 [6]
inactive: viability, T/C (second compound 0.00949 µM, first compound 0.000316 µM) 98.9% | viability, T/C (second compound 0.00949 µM, first compound 0.001 µM) 94.2% | viability, T/C (second compound 0.00949 µM, first compound 0.00316 µM) 94.8% | viability, T/C (second compound 0.00949 µM, first compound 0.01 µM) 97.5% | viability, T/C [7] 98.2% | viability, T/C [8] 88.2% | viability, T/C (second compound 0.03 µM, first compound 0.000316 µM) 97.3% | viability, T/C (second compound 0.03 µM, first compound 0.001 µM) 99.5% | viability, T/C (second compound 0.03 µM, first compound 0.00316 µM) 103% | viability, T/C (second compound 0.03 µM, first compound 0.01 µM) 102% | viability, T/C [9] 97.9% | viability, T/C [10] 92.8% | viability, T/C (second compound 0.0949 µM, first compound 0.000316 µM) 116% | viability, T/C (second compound 0.0949 µM, first compound 0.001 µM) 91% | viability, T/C (second compound 0.0949 µM, first compound 0.00316 µM) 104% | viability, T/C (second compound 0.0949 µM, first compound 0.01 µM) 99.9% | viability, T/C [11] 101% | viability, T/C [12] 88.9% | viability, T/C (second compound 0.3 µM, first compound 0.000316 µM) 99.6% | viability, T/C (second compound 0.3 µM, first compound 0.001 µM) 94.2% | viability, T/C (second compound 0.3 µM, first compound 0.00316 µM) 101% | viability, T/C (second compound 0.3 µM, first compound 0.01 µM) 96.8% | viability, T/C [13] 99.7% | viability, T/C [14] 88.3% | viability, T/C (second compound 0.949 µM, first compound 0.000316 µM) 102% | viability, T/C (second compound 0.949 µM, first compound 0.001 µM) 95.5% | viability, T/C (second compound 0.949 µM, first compound 0.00316 µM) 94.8% | viability, T/C (second compound 0.949 µM, first compound 0.01 µM) 92.5% | viability, T/C [15] 106% | viability, T/C [16] 96% | viability, T/C (second compound 3 µM, first compound 0.000316 µM) 98.6% | viability, T/C (second compound 3 µM, first compound 0.001 µM) 88.3% | viability, T/C (second compound 3 µM, first compound 0.00316 µM) 90.2% | viability, T/C (second compound 3 µM, first compound 0.01 µM) 97.2% | viability, T/C [17] 96.4% | viability, T/C [18] 87.7%

O=C(c1cc(Cc2n[nH]c(=O)c3ccccc23)ccc1F)N1CCN(C(=O)C2CC2)CC1 + CCN1C(C(=O)NC23CCC(C(=O)O)(CC2)CC3)C(c2cccc(Cl)c2F)C2(C(=O)Nc3cc(Cl)ccc32)C12CCCCC2
inactive: viability, T/C [7] 106% | viability, T/C [8] 107% | viability, T/C (second compound 0.00949 µM, first compound 0.316 µM) 113% | viability, T/C (second compound 0.00949 µM, first compound 1 µM) 110% | viability, T/C (second compound 0.00949 µM, first compound 3.16 µM) 110% | viability, T/C (second compound 0.00949 µM, first compound 10 µM) 91.5% | viability, T/C [9] 103% | viability, T/C [10] 111% | viability, T/C (second compound 0.03 µM, first compound 0.316 µM) 106% | viability, T/C (second compound 0.03 µM, first compound 1 µM) 106% | viability, T/C (second compound 0.03 µM, first compound 3.16 µM) 107% | viability, T/C (second compound 0.03 µM, first compound 10 µM) 95.8% | viability, T/C [11] 113% | viability, T/C [12] 107% | viability, T/C (second compound 0.0949 µM, first compound 0.316 µM) 111% | viability, T/C (second compound 0.0949 µM, first compound 1 µM) 108% | viability, T/C (second compound 0.0949 µM, first compound 3.16 µM) 116% | viability, T/C (second compound 0.0949 µM, first compound 10 µM) 100% | viability, T/C [13] 116% | viability, T/C [14] 107% | viability, T/C (second compound 0.3 µM, first compound 0.316 µM) 117% | viability, T/C (second compound 0.3 µM, first compound 1 µM) 117% | viability, T/C (second compound 0.3 µM, first compound 3.16 µM) 103% | viability, T/C (second compound 0.3 µM, first compound 10 µM) 97.5% | viability, T/C [15] 112% | viability, T/C [16] 106% | viability, T/C (second compound 0.949 µM, first compound 0.316 µM) 122% | viability, T/C (second compound 0.949 µM, first compound 1 µM) 95.4% | viability, T/C (second compound 0.949 µM, first compound 3.16 µM) 109% | viability, T/C (second compound 0.949 µM, first compound 10 µM) 85.1% | viability, T/C [17] 102% | viability, T/C [18] 105% | viability, T/C (second compound 3 µM, first compound 0.316 µM) 107% | viability, T/C (second compound 3 µM, first compound 1 µM) 105% | viability, T/C (second compound 3 µM, first compound 3.16 µM) 92.4% | viability, T/C (second compound 3 µM, first compound 10 µM) 93.3%
< 5.00: pIC50 [1] | pIC50 [2] | pIC50 [3] | pIC50 [4] | pIC50 [5] | pIC50 [6]

CCN1C(C(=O)NC23CCC(C(=O)O)(CC2)CC3)C(c2cccc(Cl)c2F)C2(C(=O)Nc3cc(Cl)ccc32)C12CCCCC2 (centres undefined)
inactive: viability, T/C (compound 0.00949 µM) 109% [middle of 9 runs] | viability, T/C (compound 0.03 µM) 105% [middle of 9 runs] | viability, T/C (compound 0.0949 µM) 104% [middle of 9 runs] | viability, T/C (compound 0.3 µM) 101% [middle of 9 runs] | viability, T/C (compound 0.949 µM) 110% [middle of 9 runs] | viability, T/C (compound 3 µM) 101% [middle of 9 runs]
< 5.52: pIC50 (compound alone, run of 11/07/2022) | pIC50 (curve of compound)

Cc1nc(N2CCC3(CC2)COC(C)C3N)c(CO)nc1Sc1ccnc(N)c1Cl (centres undefined)
5.58 and 5.72 and 5.60: pIC50 (curve of compound)
inactive: viability, T/C (compound 0.00949 µM) 102% and 96% and 110% | viability, T/C (compound 0.03 µM) 83.6% and 82.4% and 93.1% | viability, T/C (compound 0.0949 µM) 78.5% and 71.7% and 79.6% | viability, T/C (compound 0.3 µM) 63.5% and 73.1% and 66% | viability, T/C (compound 0.949 µM) 54.4% (2×) and 55% | viability, T/C (compound 3 µM) 50.1% and 45.6% and 49.1%

Source: PubChem BioAssay AID1963425 (Molecular Pharmacology Branch, DTP, NCI, 2024)
